Laboratory results as given in PubChem BioAssay (NCI).
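Grown in 96-well plates, cells were treated for 48 hours with each compound at five concentrations. Insufficient inhibition: endpoint recorded as highest concentration tested. GI50 is the concentration that inhibits growth by half. TGI marks complete inhibition of growth.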

How the values were obtained:
Test in all cases: NCI tumour cell line growth inhibition, 48 h
786-0 renal = system: 786-0 renal
A498 renal = system: A498 renal
A549 NSCLC = system: A549 NSCLC
ACHN renal = system: ACHN renal
BT-549 breast = system: BT-549 breast
CAKI-1 renal = system: CAKI-1 renal
CCRF-CEM leukemia = system: CCRF-CEM leukemia
COLO 205 colon = system: COLO 205 colon
DU-145 prostate = system: DU-145 prostate
EKVX NSCLC = system: EKVX NSCLC
HCC-2998 colon = system: HCC-2998 colon
HCT-116 colon = system: HCT-116 colon
HCT-15 colon = system: HCT-15 colon
HL-60(TB) leukemia = system: HL-60(TB) leukemia
HOP-62 NSCLC = system: HOP-62 NSCLC
HOP-92 NSCLC = system: HOP-92 NSCLC
HS 578T breast = system: HS 578T breast
HT29 colon = system: HT29 colon
IGROV1 ovarian = system: IGROV1 ovarian
K-562 leukemia = system: K-562 leukemia
KM12 colon = system: KM12 colon
LOX IMVI melanoma = system: LOX IMVI melanoma
M14 melanoma = system: M14 melanoma
MCF7 breast = system: MCF7 breast
MDA-MB-231 breast = system: MDA-MB-231 breast
MDA-MB-435 = system: MDA-MB-435
MOLT-4 leukemia = system: MOLT-4 leukemia
NCI-H226 lung = system: NCI-H226 lung
NCI-H23 lung = system: NCI-H23 lung
NCI-H460 lung = system: NCI-H460 lung
NCI/ADR-RES ovarian = system: NCI/ADR-RES ovarian
OVCAR-3 ovarian = system: OVCAR-3 ovarian
OVCAR-4 ovarian = system: OVCAR-4 ovarian
OVCAR-5 ovarian = system: OVCAR-5 ovarian
OVCAR-8 ovarian = system: OVCAR-8 ovarian
PC-3 prostate = system: PC-3 prostate
RXF 393 renal = system: RXF 393 renal
SF-268 CNS = system: SF-268 CNS
SF-295 CNS = system: SF-295 CNS
SF-539 CNS = system: SF-539 CNS
SK-MEL-2 melanoma = system: SK-MEL-2 melanoma
SK-MEL-28 melanoma = system: SK-MEL-28 melanoma
SK-MEL-5 melanoma = system: SK-MEL-5 melanoma
SK-OV-3 ovarian = system: SK-OV-3 ovarian
SN12C renal = system: SN12C renal
SNB-19 CNS = system: SNB-19 CNS
SNB-75 CNS = system: SNB-75 CNS
SR leukemia = system: SR leukemia
SW-620 colon = system: SW-620 colon
T-47D breast = system: T-47D breast
TK-10 renal = system: TK-10 renal
U251 CNS = system: U251 CNS
UACC-257 melanoma = system: UACC-257 melanoma
UACC-62 melanoma = system: UACC-62 melanoma
UO-31 renal = system: UO-31 renal

Structure (SMILES): COc1ccc(C(=O)NCCNc2nccc(-c3c(-c4ccc(F)cc4)nc4sccn34)n2)cc1
- GI50 (786-0 renal): 8.04 µM
- TGI (786-0 renal): > 100 µM
- GI50 (A498 renal): 2.07 µM
- TGI (A498 renal): 55 µM
- GI50 (A549 NSCLC): 3.89 µM
- TGI (A549 NSCLC): > 100 µM
- GI50 (ACHN renal): 2.67 µM
- TGI (ACHN renal): > 100 µM
- GI50 (BT-549 breast): 7.95 µM
- TGI (BT-549 breast): 31.2 µM
- GI50 (CAKI-1 renal): 2.27 µM
- TGI (CAKI-1 renal): 24.5 µM
- GI50 (CCRF-CEM leukemia): 4.75 µM
- TGI (CCRF-CEM leukemia): > 100 µM
- GI50 (COLO 205 colon): 3.01 µM
- TGI (COLO 205 colon): 22.8 µM
- GI50 (DU-145 prostate): 1.04 µM
- TGI (DU-145 prostate): 18.9 µM
- GI50 (EKVX NSCLC): 5.03 µM
- TGI (EKVX NSCLC): 73.9 µM
- GI50 (HCC-2998 colon): 9.72 µM
- TGI (HCC-2998 colon): > 100 µM
- GI50 (HCT-116 colon): 3.95 µM
- TGI (HCT-116 colon): 19.8 µM
- GI50 (HCT-15 colon): 4.09 µM
- TGI (HCT-15 colon): > 100 µM
- GI50 (HL-60(TB) leukemia): 13.6 µM
- TGI (HL-60(TB) leukemia): 47.8 µM
- GI50 (HOP-62 NSCLC): 12.8 µM
- TGI (HOP-62 NSCLC): > 100 µM
- GI50 (HOP-92 NSCLC): 13.4 µM
- TGI (HOP-92 NSCLC): > 100 µM
- GI50 (HS 578T breast): 6.12 µM
- TGI (HS 578T breast): 72.3 µM
- GI50 (HT29 colon): 2.5 µM
- TGI (HT29 colon): > 100 µM
- GI50 (IGROV1 ovarian): 2.53 µM
- TGI (IGROV1 ovarian): 15.5 µM
- GI50 (K-562 leukemia): 4.81 µM
- TGI (K-562 leukemia): > 100 µM
- GI50 (KM12 colon): 2.99 µM
- TGI (KM12 colon): 22.4 µM
- GI50 (LOX IMVI melanoma): 4.67 µM
- TGI (LOX IMVI melanoma): > 100 µM
- GI50 (M14 melanoma): 6.45 µM
- TGI (M14 melanoma): 30.9 µM
- GI50 (MCF7 breast): 2 µM
- TGI (MCF7 breast): 36.2 µM
- GI50 (MDA-MB-231 breast): 24.8 µM
- TGI (MDA-MB-231 breast): > 100 µM
- GI50 (MDA-MB-435): 3.1 µM
- TGI (MDA-MB-435): 22.7 µM
- GI50 (MOLT-4 leukemia): 6.97 µM
- TGI (MOLT-4 leukemia): 57.8 µM
- GI50 (NCI-H226 lung): 6 µM
- TGI (NCI-H226 lung): 69.1 µM
- GI50 (NCI-H23 lung): 8.95 µM
- TGI (NCI-H23 lung): > 100 µM
- GI50 (NCI-H460 lung): 3.55 µM
- TGI (NCI-H460 lung): > 100 µM
- GI50 (NCI/ADR-RES ovarian): 7.62 µM
- TGI (NCI/ADR-RES ovarian): > 100 µM
- GI50 (OVCAR-3 ovarian): 1.24 µM
- TGI (OVCAR-3 ovarian): 19.9 µM
- GI50 (OVCAR-4 ovarian): 10.5 µM
- TGI (OVCAR-4 ovarian): 84 µM
- GI50 (OVCAR-5 ovarian): 39 µM
- TGI (OVCAR-5 ovarian): > 100 µM
- GI50 (OVCAR-8 ovarian): 5.07 µM
- TGI (OVCAR-8 ovarian): > 100 µM
- GI50 (PC-3 prostate): 10.9 µM
- TGI (PC-3 prostate): > 100 µM
- GI50 (RXF 393 renal): 4.05 µM
- TGI (RXF 393 renal): 39.4 µM
- GI50 (SF-268 CNS): 2.61 µM
- TGI (SF-268 CNS): 33.5 µM
- GI50 (SF-295 CNS): 2.73 µM
- TGI (SF-295 CNS): 15.1 µM
- GI50 (SF-539 CNS): 16.3 µM
- TGI (SF-539 CNS): > 100 µM
- GI50 (SK-MEL-2 melanoma): 6.23 µM
- TGI (SK-MEL-2 melanoma): 30.4 µM
- GI50 (SK-MEL-28 melanoma): 12.8 µM
- TGI (SK-MEL-28 melanoma): > 100 µM
- GI50 (SK-MEL-5 melanoma): 3.01 µM
- TGI (SK-MEL-5 melanoma): 15.7 µM
- GI50 (SK-OV-3 ovarian): 13.7 µM
- TGI (SK-OV-3 ovarian): > 100 µM
- GI50 (SN12C renal): 7.8 µM
- TGI (SN12C renal): > 100 µM
- GI50 (SNB-19 CNS): 10.3 µM
- TGI (SNB-19 CNS): > 100 µM
- GI50 (SNB-75 CNS): 2.97 µM
- TGI (SNB-75 CNS): 37.2 µM
- GI50 (SR leukemia): 5.93 µM
- TGI (SR leukemia): 49.1 µM
- GI50 (SW-620 colon): 7.22 µM
- TGI (SW-620 colon): > 100 µM
- GI50 (T-47D breast): 5.78 µM
- TGI (T-47D breast): 34 µM
- GI50 (TK-10 renal): 16.1 µM
- TGI (TK-10 renal): > 100 µM
- GI50 (U251 CNS): 4.47 µM
- TGI (U251 CNS): > 100 µM
- GI50 (UACC-257 melanoma): 13.9 µM
- TGI (UACC-257 melanoma): 68.8 µM
- GI50 (UACC-62 melanoma): 4.03 µM
- TGI (UACC-62 melanoma): 28.4 µM
- GI50 (UO-31 renal): 1.42 µM
- TGI (UO-31 renal): 16.5 µM
